Changes are numbered by the printed parent chain. Blank lines part the entries; values can stand above or below the compound they belong to.
How the values were obtained:
[1] = target: Phosphatidylinositol 4,5-bisphosphate 3-kinase catalytic subunit beta isoform (Homo sapiens) (UniProt P42338); test: Selectivity interaction (Adapta Assay) EUB0001632a PIK3CB; settings: at 10 µM
[2] = target: T1, Dual specificity mitogen-activated protein kinase kinase 6 (Homo sapiens) (UniProt P52564); test: Selectivity interaction (Kinase panel (Invitrogen)) EUB0000639a MAP2K6; settings: at 200 nM
T1 sequence (whole entry): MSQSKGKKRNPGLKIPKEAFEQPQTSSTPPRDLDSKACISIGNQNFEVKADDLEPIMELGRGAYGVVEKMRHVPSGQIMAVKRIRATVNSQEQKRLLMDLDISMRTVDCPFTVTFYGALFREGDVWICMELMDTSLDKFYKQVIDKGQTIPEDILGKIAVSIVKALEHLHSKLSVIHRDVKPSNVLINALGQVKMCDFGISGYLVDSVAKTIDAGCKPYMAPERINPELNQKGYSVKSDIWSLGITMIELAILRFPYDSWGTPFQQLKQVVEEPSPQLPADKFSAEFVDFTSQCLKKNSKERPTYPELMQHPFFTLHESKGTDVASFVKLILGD

[3] = target: Receptor-type tyrosine-protein kinase FLT3 (Homo sapiens) (UniProt P36888); test: (§1) Selectivity interaction (KinomeScan (DiscoverX)) EUB0001049a FLT3; settings: at 1 µM
[4] = test system: T2, Receptor-type tyrosine-protein kinase FLT3 (Homo sapiens), P36888 [D835Y]; test: as §1; settings: at 1 µM
T2 sequence (whole entry): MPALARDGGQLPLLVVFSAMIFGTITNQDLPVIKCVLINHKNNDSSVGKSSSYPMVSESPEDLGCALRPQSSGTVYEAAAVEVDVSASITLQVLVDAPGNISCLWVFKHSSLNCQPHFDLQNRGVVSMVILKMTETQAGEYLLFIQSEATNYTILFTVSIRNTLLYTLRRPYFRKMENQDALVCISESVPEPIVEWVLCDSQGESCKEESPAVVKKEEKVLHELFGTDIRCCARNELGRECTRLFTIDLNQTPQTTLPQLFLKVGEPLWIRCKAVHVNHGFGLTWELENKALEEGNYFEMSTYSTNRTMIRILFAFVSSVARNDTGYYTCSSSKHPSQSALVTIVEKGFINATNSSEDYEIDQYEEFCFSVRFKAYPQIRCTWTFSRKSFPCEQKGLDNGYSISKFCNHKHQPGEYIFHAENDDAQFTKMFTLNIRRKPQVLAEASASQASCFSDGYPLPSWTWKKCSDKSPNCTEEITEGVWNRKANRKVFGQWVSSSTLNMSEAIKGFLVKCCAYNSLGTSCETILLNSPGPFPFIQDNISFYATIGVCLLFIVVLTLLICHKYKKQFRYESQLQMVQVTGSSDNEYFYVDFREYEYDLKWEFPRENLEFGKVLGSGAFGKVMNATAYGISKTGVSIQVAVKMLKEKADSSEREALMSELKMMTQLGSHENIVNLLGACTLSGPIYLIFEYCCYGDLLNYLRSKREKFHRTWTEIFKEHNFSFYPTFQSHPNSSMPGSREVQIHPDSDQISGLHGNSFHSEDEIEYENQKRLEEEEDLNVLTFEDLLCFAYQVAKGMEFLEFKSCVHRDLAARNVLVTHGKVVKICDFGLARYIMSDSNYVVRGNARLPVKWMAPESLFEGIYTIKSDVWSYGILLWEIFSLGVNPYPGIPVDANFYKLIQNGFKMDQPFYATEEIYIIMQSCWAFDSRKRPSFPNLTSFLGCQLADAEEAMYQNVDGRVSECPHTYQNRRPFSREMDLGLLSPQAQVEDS

[5] = test system: Receptor-type tyrosine-protein kinase FLT3 (Homo sapiens), P36888 [UNDEFINED MUTATION]; test: as §1; settings: at 1 µM
[6] = test system: T3, Receptor-type tyrosine-protein kinase FLT3 (Homo sapiens), P36888 [D835H]; test: as §1; settings: at 1 µM
T3 sequence (whole entry): T2 sequence (whole entry) with Y835H

[7] = target: Phosphorylase b kinase gamma catalytic chain, skeletal muscle/heart isoform (Homo sapiens) (UniProt Q16816); test: Selectivity interaction (KinomeScan (DiscoverX)) EUB0001049a PHKG1; settings: at 1 µM
[8] = target: T4, Aurora kinase C (Homo sapiens) (UniProt Q9UQB9); test: Selectivity interaction (KinomeScan (DiscoverX)) EUB0000092b AURKC; settings: at 10 µM
T4 sequence (whole entry): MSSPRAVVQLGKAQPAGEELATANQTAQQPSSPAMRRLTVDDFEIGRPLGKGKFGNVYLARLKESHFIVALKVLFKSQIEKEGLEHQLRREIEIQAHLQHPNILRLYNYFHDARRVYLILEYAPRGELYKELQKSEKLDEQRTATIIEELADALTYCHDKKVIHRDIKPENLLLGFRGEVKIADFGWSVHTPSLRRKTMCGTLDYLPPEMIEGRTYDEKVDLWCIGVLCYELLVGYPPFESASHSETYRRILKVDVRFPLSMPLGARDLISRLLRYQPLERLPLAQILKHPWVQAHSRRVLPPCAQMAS

[9] = target: Serine/threonine-protein kinase 25 (Homo sapiens) (UniProt O00506); test: Selectivity interaction (KinomeScan (DiscoverX)) EUB0001619a STK25; settings: at 1 µM
Chain of Serine/threonine-protein kinase 25 (Homo sapiens) (O00506 whole entry, looked up): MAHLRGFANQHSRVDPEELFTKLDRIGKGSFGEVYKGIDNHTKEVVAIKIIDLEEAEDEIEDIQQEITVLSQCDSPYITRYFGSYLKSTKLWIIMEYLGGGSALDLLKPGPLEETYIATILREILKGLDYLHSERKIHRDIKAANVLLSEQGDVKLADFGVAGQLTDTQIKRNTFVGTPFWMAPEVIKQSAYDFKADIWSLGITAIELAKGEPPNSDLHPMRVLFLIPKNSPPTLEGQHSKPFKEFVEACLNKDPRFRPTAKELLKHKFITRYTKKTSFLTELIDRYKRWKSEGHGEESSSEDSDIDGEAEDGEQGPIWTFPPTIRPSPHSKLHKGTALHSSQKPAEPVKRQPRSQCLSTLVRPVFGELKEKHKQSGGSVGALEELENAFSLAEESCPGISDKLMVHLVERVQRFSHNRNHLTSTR

Chain of Phosphorylase b kinase gamma catalytic chain, skeletal muscle/heart isoform (Homo sapiens) (Q16816 whole entry, looked up, canonical isoform): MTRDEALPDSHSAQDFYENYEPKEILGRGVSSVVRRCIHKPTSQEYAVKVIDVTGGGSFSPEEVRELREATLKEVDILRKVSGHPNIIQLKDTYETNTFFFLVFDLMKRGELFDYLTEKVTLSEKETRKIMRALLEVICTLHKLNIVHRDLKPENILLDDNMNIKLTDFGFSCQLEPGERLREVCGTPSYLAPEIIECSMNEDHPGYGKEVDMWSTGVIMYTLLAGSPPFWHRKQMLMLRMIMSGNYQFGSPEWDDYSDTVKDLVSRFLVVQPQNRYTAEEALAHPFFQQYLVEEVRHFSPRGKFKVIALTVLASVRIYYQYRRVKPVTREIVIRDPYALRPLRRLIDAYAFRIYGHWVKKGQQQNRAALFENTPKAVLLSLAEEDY
Chain of Phosphatidylinositol 4,5-bisphosphate 3-kinase catalytic subunit beta isoform (Homo sapiens) (P42338 whole entry, looked up, canonical isoform): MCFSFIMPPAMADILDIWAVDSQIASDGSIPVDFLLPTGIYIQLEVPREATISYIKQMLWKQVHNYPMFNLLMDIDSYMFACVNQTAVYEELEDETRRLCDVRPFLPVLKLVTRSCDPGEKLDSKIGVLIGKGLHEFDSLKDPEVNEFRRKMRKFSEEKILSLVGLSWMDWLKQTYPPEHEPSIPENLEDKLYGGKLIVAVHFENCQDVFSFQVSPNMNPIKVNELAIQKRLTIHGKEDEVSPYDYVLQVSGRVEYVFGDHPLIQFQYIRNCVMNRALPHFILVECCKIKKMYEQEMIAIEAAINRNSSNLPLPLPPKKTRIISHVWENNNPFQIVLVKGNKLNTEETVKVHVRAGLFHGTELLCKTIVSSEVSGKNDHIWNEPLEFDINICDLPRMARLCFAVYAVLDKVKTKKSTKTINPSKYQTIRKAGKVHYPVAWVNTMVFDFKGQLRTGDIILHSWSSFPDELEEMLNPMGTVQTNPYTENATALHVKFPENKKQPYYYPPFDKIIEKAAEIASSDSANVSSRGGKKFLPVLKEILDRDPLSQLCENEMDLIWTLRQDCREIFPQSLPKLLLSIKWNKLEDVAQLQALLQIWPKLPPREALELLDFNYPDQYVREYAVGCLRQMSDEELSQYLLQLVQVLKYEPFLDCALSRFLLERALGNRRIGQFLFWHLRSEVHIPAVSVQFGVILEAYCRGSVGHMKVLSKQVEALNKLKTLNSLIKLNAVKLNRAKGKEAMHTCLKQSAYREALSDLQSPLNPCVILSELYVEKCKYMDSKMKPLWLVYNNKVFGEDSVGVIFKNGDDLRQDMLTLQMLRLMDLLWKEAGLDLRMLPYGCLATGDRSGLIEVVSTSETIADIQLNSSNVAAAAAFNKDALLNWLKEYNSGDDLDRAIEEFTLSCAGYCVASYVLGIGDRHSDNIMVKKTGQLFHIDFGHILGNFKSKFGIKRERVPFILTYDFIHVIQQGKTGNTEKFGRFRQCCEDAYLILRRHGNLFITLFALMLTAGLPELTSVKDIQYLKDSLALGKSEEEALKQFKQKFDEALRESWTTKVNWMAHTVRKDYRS

- % of inhibition [1]: -11.2%
Structure (SMILES): Cn1cc(-n2cnc3c(NCc4nc5cc(Cl)c(Cl)cc5[nH]4)nc(N4CCOCC4)nc32)cn1

- % of inhibition [2]: 14.8%
Structure (SMILES): CC[C@@H]1[C@H](F)C(=O)N[C@@H]1COc1nccc2cc(C(N)=O)c(OC)cc12 [ZIMLOVISERTIB]

Structure (SMILES): COc1cc(Nc2nc(C)cc(-c3cnn4nc(OC)ccc34)n2)cc(C(F)(F)F)c1
- % of control [3]: 100%
- % of control [4]: 79%
- % of control [5]: 81%
- % of control [6]: 93%
- % of control [7]: 85%

Structure (SMILES): CCC(=O)N1CCN(c2ccc(-n3c(=O)ccc4cnc5ccc(-c6cnc7ccccc7c6)cc5c43)cc2C(F)(F)F)CC1
- % of control [8]: 91%

Structure (SMILES): N#Cc1cccc(-c2c[nH]c3ncnc(N4CCOCC4)c23)c1
- % of control [9]: 28%
